The target in assay [1] is T1, Melanocortin receptor 5 (Homo sapiens, UniProt P33032). The assay can be described thus: Binding affinity in competition with [125I]NDP-MSH on recombinant melanocortin 5 receptor.
Assay [2] deals with Melanocortin receptor 4 (Homo sapiens, UniProt P32245). The assay can be described thus: Binding affinity in competition with [125I]NDP-MSH on recombinant melanocortin 4 receptor.
Assay [3] deals with T2, Melanocyte-stimulating hormone receptor (Homo sapiens, UniProt Q01726). The experiment in a line: Binding affinity in competition with [125I]NDP-MSH on recombinant melanocortin 1 receptor.
The target of assay [4] is Melanocortin receptor 3 (Homo sapiens, UniProt P41968). The experiment in a line: Binding affinity in competition with [125I]NDP-MSH on recombinant melanocortin 3 receptor.
Assay [5] has as its target T1, Melanocortin receptor 5. The assay can be described thus: Tested for its binding affinity in competition with [125I]NDP-MSH on recombinant Melanocortin 5 receptor; nb = no binding.
For assay [6], the target named is T2, Melanocyte-stimulating hormone receptor. The experiment in a line: Tested for its binding affinity in competition with [125I]NDP-MSH on recombinant human Melanocortin 1 receptor; nb = no binding.

T1 sequence (P33032 whole entry): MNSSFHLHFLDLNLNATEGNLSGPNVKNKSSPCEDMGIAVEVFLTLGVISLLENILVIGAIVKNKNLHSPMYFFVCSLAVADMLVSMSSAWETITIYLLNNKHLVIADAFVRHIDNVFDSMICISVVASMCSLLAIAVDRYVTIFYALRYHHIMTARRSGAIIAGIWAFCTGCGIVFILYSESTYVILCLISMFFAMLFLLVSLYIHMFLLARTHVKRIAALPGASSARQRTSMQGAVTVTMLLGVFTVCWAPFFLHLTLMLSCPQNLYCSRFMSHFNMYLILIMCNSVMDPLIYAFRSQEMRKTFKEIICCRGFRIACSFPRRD
T2 sequence (Q01726 whole entry): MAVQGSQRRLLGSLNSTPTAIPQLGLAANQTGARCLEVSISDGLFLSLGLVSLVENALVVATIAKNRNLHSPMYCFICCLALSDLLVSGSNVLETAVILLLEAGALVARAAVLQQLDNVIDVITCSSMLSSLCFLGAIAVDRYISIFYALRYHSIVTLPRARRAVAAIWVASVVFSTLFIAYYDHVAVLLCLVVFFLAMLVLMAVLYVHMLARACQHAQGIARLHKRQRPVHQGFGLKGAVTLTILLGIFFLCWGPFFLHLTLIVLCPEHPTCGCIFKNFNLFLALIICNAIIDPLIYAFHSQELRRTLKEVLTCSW
Melanocortin receptor 4, sequence (P32245 whole entry): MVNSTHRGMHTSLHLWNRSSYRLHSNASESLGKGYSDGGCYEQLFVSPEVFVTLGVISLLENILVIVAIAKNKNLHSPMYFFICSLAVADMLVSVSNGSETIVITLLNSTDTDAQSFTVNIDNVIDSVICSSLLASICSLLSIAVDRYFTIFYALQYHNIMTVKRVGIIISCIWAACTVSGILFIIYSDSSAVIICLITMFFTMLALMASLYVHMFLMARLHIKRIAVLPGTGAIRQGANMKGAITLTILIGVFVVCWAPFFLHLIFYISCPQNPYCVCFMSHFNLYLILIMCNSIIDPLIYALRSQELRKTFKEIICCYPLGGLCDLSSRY
Melanocortin receptor 3, sequence (P41968 whole entry): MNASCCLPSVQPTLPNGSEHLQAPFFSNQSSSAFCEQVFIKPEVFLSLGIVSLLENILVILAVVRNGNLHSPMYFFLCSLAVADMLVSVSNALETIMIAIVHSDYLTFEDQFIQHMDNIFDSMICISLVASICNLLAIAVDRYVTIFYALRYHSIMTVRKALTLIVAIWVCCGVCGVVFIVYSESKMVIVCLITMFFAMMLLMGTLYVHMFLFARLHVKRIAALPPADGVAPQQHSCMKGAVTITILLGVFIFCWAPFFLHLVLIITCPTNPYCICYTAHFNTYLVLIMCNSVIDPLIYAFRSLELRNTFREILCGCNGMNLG

For `NC(N)=NCCCC(NCc1c[nH]c2ccccc12)C(=O)O` (centres undefined), the Ki in assay [1], in assay [2], in assay [3] and in assay [4] was over 1 µM each time.
As to `N=C(N)NCCC[C@H](NCc1ccc2ccccc2c1)C(=O)Nc1cccc2ccccc12`, the Ki in assay [1] came to 8.7 µM; in assay [2], 6.8 µM; in assay [3], 1.3 µM; in assay [4], 6.4 µM.
For `NC(N)=NCCCNC(=O)[C@@H]1C[C@H](O)CN1Cc1ccc2ccccc2c1`, the Ki in assay [1] was 221 µM; in assay [2], 279 µM; in assay [3], 2.9 µM; in assay [4], 82 µM.
The matching figures for `C=CCOC(=O)[C@H](CCCNC(=N)N)NCc1ccc2ccccc2c1`: 15 µM, 15 µM, 5.9 µM and 28 µM.
The matching figures for `N=C(N)NCCC[C@H](NCc1ccc2ccccc2c1)C(=O)Nc1ccc2ccccc2c1`: 6.6 µM, 14 µM, 2.9 µM and 14 µM.
`NC(N)=NCCC[C@@H](NCc1c[nH]c2ccccc12)C(=O)O`: the Ki in assay [1], in assay [2], in assay [3] and in assay [4] was over 1 µM throughout.
As for `COc1ccc(CN[C@H](CCCNC(=N)N)C(=O)O)c(Cl)c1OC`, the Ki in assay [1], in assay [2], in assay [3] and in assay [4] was over 1 µM in each case.
As to `COc1ccc(CN[C@H](CCCNC(=N)N)C(=O)O)cc1OC`, the Ki in assay [1], in assay [2], in assay [3] and in assay [4] was over 1 µM each time.
In the case of `COc1ccc(CNC(CCCN=C(N)N)C(=O)O)cc1OC` (centres undefined), the Ki in assay [1], in assay [2], in assay [3] and in assay [4] was over 1 µM throughout.
Regarding `O=C(NCc1ccc2ccccc2c1)[C@H]1CCCN1CCc1c[nH]c2ccccc12`, the Ki entry in assay [5] was “Not Active”; in assay [2], 166 µM; in assay [6], “Not Active”; in assay [4], 752 µM.
Regarding `N=C(N)NCCC[C@@H](NCc1ccc2ccccc2c1)C(N)=O`, the Ki in assay [1] is 125 µM; in assay [2], over 1000 µM; in assay [3] it was over 1000 µM; in assay [4], over 1000 µM.
Consider `N=C(N)NCCC[C@H](NCc1c[nH]c2ccccc12)C(=O)N[C@@H](Cc1c[nH]c2ccccc12)C(N)=O`, for which the inhibition constant (Ki) in assay [1] is 184 µM; in assay [2] it was 205 µM; in assay [3], over 1000 µM; in assay [4], over 1000 µM.
With `N=C(N)NCCC[C@H](NCc1c[nH]c2ccccc12)C(N)=O`, the Ki in assay [1], in assay [2], in assay [3] and in assay [4] was over 1 µM throughout.
`N=C(N)NCCC[C@H](NCc1ccc2ccccc2c1)C(N)=O`: the inhibition constant (Ki) in assay [1], in assay [2], in assay [3] and in assay [4] was over 1 µM each time.
As for `N=C(N)NCCCNC(=O)[C@H](CCCN=C(N)N)NCc1ccc2ccccc2c1`, the Ki result was “Not Active” in assay [5], 30 µM in assay [2], 4.5 µM in assay [3] and 4.8 µM in assay [4].
`NC(=O)[C@H](Cc1ccc2ccccc2c1)NCc1c[nH]c2ccccc12`: the Ki is 60 µM in assay [1], over 1000 µM in assay [2], 26 µM in assay [3] and over 1000 µM in assay [4].
Turning to `N=C(N)NCCC[C@@H](NCc1ccc2ccccc2c1)C(=O)N[C@@H](Cc1c[nH]c2ccccc12)C(N)=O`, the Ki in assay [1] came to 56 µM; in assay [2], 56 µM; in assay [3], 32 µM; in assay [4], 147 µM.
Consider `N=C(N)NCCC[C@H](NCC1CCc2ccccc2C1)C(N)=O` (some centres undefined), for which the inhibitory constant (Ki) in assay [1] is 130 µM; in assay [2], 134 µM; in assay [3], over 1000 µM; in assay [4], 155 µM.
The matching figures for `N=C(N)NCCC[C@H](NCc1ccc2ccccc2c1)C(=O)N[C@@H](Cc1c[nH]c2ccccc12)C(N)=O`: 74 µM, 105 µM, 29 µM and 107 µM.
In the case of `N=C(N)NCCC[C@@H](NCc1c[nH]c2ccccc12)C(N)=O`, the Ki in assay [1], in assay [2], in assay [3] and in assay [4] was over 1 µM in each case.
For `COc1ccc(CN[C@@H](CCCNC(=N)N)C(N)=O)c(Cl)c1OC`, the Ki in assay [1], in assay [2], in assay [3] and in assay [4] was over 1 µM in each case.
On to `O=C(NCCc1c[nH]cn1)[C@@H]1C[C@H](O)CN1Cc1ccc2ccccc2c1`, for which the Ki is 50 µM in assay [1], 150 µM in assay [2], “Not Active” in assay [6] and 161 µM in assay [4].
As for `NC(=O)[C@@H](Cc1c[nH]c2ccccc12)NCc1ccc2ccccc2c1`, the Ki is 37 µM in assay [1], 64 µM in assay [2], 15 µM in assay [3] and 53 µM in assay [4].
The matching figures for `NC(=O)[C@@H](Cc1ccc2ccccc2c1)NCc1c[nH]c2ccccc12`: 95 µM, over 1000 µM, 74 µM and over 1000 µM.
`COc1ccc(CN[C@@H](CCCN=C(N)N)C(N)=O)cc1OC`: the Ki in assay [1], in assay [2], in assay [3] and in assay [4] was over 1 µM throughout.
Turning to `NC(=O)[C@H](Cc1c[nH]c2ccccc12)NCc1ccc2ccccc2c1`, the Ki in assay [1] was found to be 42 µM; in assay [2], 139 µM; in assay [3], 8.7 µM; in assay [4], 56 µM.

Values taken from ChEMBL document CHEMBL1135876, “N-alkylaminoacids and their derivatives interact with melanocortin receptors” (Bioorg Med Chem Lett, 2002).
